Legend:
[1] = test system: thrombin generation in pooled normal plasma; assay: Calibrated Automated Thrombogram thrombin generation assay in pooled normal plasma; assay type: biochemical, human
[2] = test system: plasma of a hemophilia A patient containing anti-FVIII antibodies; assay: Thrombin generation in plasma of a hemophilia A patient with anti-factor VIII antibodies; assay type: biochemical, human; details: anti-FVIII antibodies 50 BU
Experimental: FIG. 28: Effect of OKL-1111 (A), OKL-1180 (B) and OKL-1187 (C) on coagulation in plasma of a hemophilia A patient with anti-factor VIII antibodies. BU=Bethesda Units.
The Calibrated Automated Thrombogram® assays the generation of thrombin in clotting plasma using a microtiter plate reading fluorometer (Fluoroskan Ascent, ThermoLab systems, Helsinki, Finland) and Thrombinoscope® software (Thrombinoscope BV, Maastricht, The Netherlands). The assay was carried out as described by Hemker et al. (Pathofysiol. IIaemost. Thromb. 2003, 33, 4-15), and the Thrombinoscope® manual. Coagulation was triggered by recalcification in the presence of 1 or 5 pM recombinant human tissue factor (Innovin®, Siemens, Marburg, Germany), 4 μM phospholipids, and 417 μM fluorogenic substrate Z-Gly-Gly-Arg-AMC (Bachem, Bubendorf, Switzerland). Fluorescence was monitored using the Fluoroskan Ascent fluorometer (ThermoLabsystems, Helsinki, Finland), and the lag time, peak thrombin, velocity index and area under the curve (ETP) were calculated using the Thrombinoscope® software (Thrombinoscope BV).
The patient had developed antibodies against factor VIII prior to plasma withdrawal. The plasma contained high levels of anti-FVIII antibodies (50 BU).

[3] = test system: mice anticoagulated with rivaroxaban; assay: In vivo saphenous vein bleeding model in mice anticoagulated with rivaroxaban; details: mice fed rivaroxaban for 4 days; cyclodextrin by tail vein injection 5 min before bleeding assay; OKL-1111 dose expected to give 25 μM in plasma
Experimental: FIG. 29: In vivo analysis of procoagulant potential of OK-1111 and OKL-1147. Except for controls, animals were treated with rivaroxaban for 4 days and cyclodextrins were administered 5 min prior bleeding assay.
All animal protocols were approved by the Institutional Animal Care and Use Committee of the University of North Carolina. C57BL6/J mice were purchased from Charles Rivers Laboratories (Willmington, Mass.). Bleeding studies were done essentially as previously described Pastoft et al. (Haemophilia 2012; 18:782-8). Mice were anesthetized with isoflurane throughout all procedures. The hair on the ventral side of both hind limbs was removed. The animals were placed supine on a temperature and ECG monitoring board. The paws were gently restrained by looping soft polyethylene tubing around them and attaching the tubing to the ECG board. The skin on the left and right ventral hind limb was incised which exposes a length of the saphenous neurovascular bundle; the bundle was covered with normal saline to prevent drying. To assess haemostasis, the right saphenous vein was transected by piercing it with a 23-G needle followed by a longitudinal incision made in the distal portion of the vessel. Blood was gently wicked away until haemostasis occurred. The clot was then removed to restart bleeding and the blood was again wicked away until haemostasis occurs again. Clot disruption was repeated after every incidence of haemostasis for 30 minutes. Mice were fed chow that contained 0.1 mg rivaroxaban per g of chow. The mice were on this diet for 4 days to allow them to reach a steady state. Cyclodextrins were administered by a tail vein injection 5 minutes before the start of the bleeding assay. Two parameters were measured: 1) the number of times that haemostasis occurs in a 30 minute period, and 2) the time required for each haemostasis.

[4] = normal plasma, versus absence of cyclodextrin

For `O=C(O)CCCCCSCC1OC2OC3C(CSCCCCCC(=O)O)OC(OC4C(CSCCCCCC(=O)O)OC(OC5C(CSCCCCCC(=O)O)OC(OC6C(CSCCCCCC(=O)O)OC(OC7C(CSCCCCCC(=O)O)OC(OC8C(CSCCCCCC(=O)O)OC(OC9C(CSCCCCCC(=O)O)OC(OC1C(O)C2O)C(O)C9O)C(O)C8O)C(O)C7O)C(O)C6O)C(O)C5O)C(O)C4O)C(O)C3O` (centres unmarked) [OKL-1111], the “procoagulant effect in normal plasma” value ([1]; no anticoagulant, cyclodextrin 100 μM unless otherwise indicated, 1 pM TF) was “very strong procoagulant effects”, the lag time [1, 4] was “considerably shorter” and the peak thrombin [1, 4] was “largely increased”. The “thrombin generation in hemophilia A patient plasma” value [2] was “concentration-dependently stimulated thrombin generation” and the clotting times [3] was “normalization of the clotting times”.

— patent publication US10813944B2, “Cyclodextrins as procoagulants” (STICHTING SANQUIN BLOEDVOORZIENING, priority 2016, dated 2020)
